From the COVID Moonshot data (paper PMC11187573), “Identification of SARS-CoV-2 Mpro inhibitors through deep reinforcement learning for de novo drug design and computational chemistry approaches” (RSC Medicinal Chemistry, 2024)

What was measured:
[1] = target: SARS-CoV-2 Main Protease (SARS-CoV-2) (UniProt P0DTD1)
[2] = target: SARS-CoV-2 Main Protease (SARS-CoV-2) (UniProt P0DTD1); remark: listed apart in the source
Method: Briefly, compounds were seeded into assay-ready plates (Greiner 384PP, cat# 781280) using an ECHO 650T dispenser and DMSO was back-filled for a uniform concentration in assay plates (DMSO concentration < 1%, final volume = 500 nL.). […] After a quick centrifugation step (1000 rpm, 15 s) the plate is incubated for 15 min at room temperature. […] After centrifugation (1000 rpm, 14 s) the reaction is incubated for 10 min (11-mer) or 5 min (37-mer) at room temperature before quenching with 10 % formic acid. The reactions are analysed with MS using RapidFire (RF) 365 high-throughput sampling robot (Agilent) connected to an iFunnel Agilent 6550 accurate mass quadrupole time-of-flight (Q-TOF) mass spectrometer using electrospray. […] Dose response curves uses an 11-point range of 100--0.0017 µM inhibitor concentrations. RapidFire integrator software (Agilent) was used to extract the charged states from the total ion chromatogram data followed by peak integration. For the 11-mer peptide the m/z (+1) charge states of both the substrate (1191.67 Da) and cleaved N-terminal product TSAVLQ (617.34 Da) were used and the 37-mer peptide the m/z (+2) charge states of the substrate (3960.94 Da) and m/z (+1) of the cleaved C-terminal product [sequence] (1125.57 Da). Percentage conversion (product peak integral / (product peak integral + substrate peak integral))*100) and percentage inhibitions were calculated and normalised against DMSO control with deduction of any background signal in Microsoft Excel. IC50s were calculated using Levenberg–Marquardt algorithm used to fit a restrained Hill equation to the dose-response data with both GraphPad PRISM and CDD.

SMILES	inhibition ([1]; 20.0 µM)	inhibition ([1]; 50.0 µM)	relative solubility at 20 uM	relative solubility at 100 uM	inhibition ([2]; 50.0 µM)	IC50 [2]	inhibition ([2]; 20.0 µM)	IC50 [1]
CN1C(=O)/C(=N\NC(=O)c2ccc3c(c2)OCO3)c2ccccc21	-16.9%	-60.6%	0.97	0.75	-12.8%			
CCOC(=O)c1nc(S(C)(=O)=O)ncc1Cl	96.9%	98.5%	0.99	0.99	100%	1040 nM		
N#Cc1cccc(CNc2ccc(O)cc2)c1	9.73%	2.32%	1	1	22.7%		19.8%	
COc1cccc2c1OCC(NC(=O)c1cc(=O)[nH]c3ccc(F)cc13)C2 (configuration not stated)	2.25%	19%	0.96	0.81	11%			
C=CC(=O)N(c1ccc(C(C)(C)C)cc1)C(C(=O)NCC1CCCO1)c1cccnc1 (configuration not stated)	70.8%	44.1%	1	0.99	25.6%		0%	
O=C(Nc1cccnc1)c1cc(Cl)ccc1O	18.3%	22.8%	1	0.89			0%	
Cc1ccncc1NC(=O)[C@@H]1C[C@H]1CF (stereo in doubt)	4.1%	3.57%	1	1	3.35%			
Cc1noc(C)c1COc1ccccc1C(=O)NC(C)c1nnc2ncccn12 (configuration not stated)	2.22%	8.28%	0.99	0.94	18.5%		0%	
Cn1nncc1CC(=O)NC(c1ccccc1)c1nc2ccccc2n1C (configuration not stated)		54.1%	1	1	0%		0%	
C#Cc1ccc(CNC(=O)N2CCOCC2)cc1	1.4%	2.46%	1	1	0%		0%	
C=CC(=O)N(c1ccc(C(C)(C)C)cc1)C(C(=O)Nc1cccc(F)c1C)c1cccnc1 (configuration not stated)		-14.8%	1	0.98	0%		0%	
COc1cc(NC(=O)C(=O)Nc2cc(OC)c(OC)c(OC)c2)cc(OC)c1OC	-9.4%	4.05%	0.99	0.92			0.456%	
CS(=O)(=O)NCCc1cccc(O)c1	-1.8%	0.0445%	1	1	1.46%		-2.45%	
COc1ccc2nc(C)cc(C(=O)NN)c2c1		22.2%	1	1	0%		0%	
C[C@H](NC(=O)[C@@H](C)c1ccc(F)c(F)c1)c1cccc(F)c1 (stereo in doubt)		-31.4%	1	0.79	0%		0%	
C=C1CC1C(=O)NC(C)c1ccc(S(=O)(=O)NC)cc1 (configuration not stated)	-2.67%	-0.972%	1	1	0%		0%	
O=C(NCc1ccc(Cl)cc1CN1CCN(C(=O)CCl)CC1)[C@@H]1CCCOC1 (stereo in doubt)	56.7%	77.9%	1	1	100%	20100 nM		
NC1=Nc2nc3ccccc3n2C(c2ccc(-c3nc4ccccc4s3)o2)N1 (configuration not stated)	-25.2%	-3.34%	0.53	0.23	38.8%			
CS(=O)(=O)c1oc(-c2ccc(F)cc2)nc1S(=O)(=O)c1ccc(Cl)cc1	10.8%	11%	0.78	0.45	0%			
Cc1ccc(S(=O)(=O)N2CCN(C(=O)c3cc(=O)[nH]c4ccc(Cl)cc34)CC2)cc1	-0.869%	-0.533%	0.97	0.88	11.5%			
C=CC(=O)N(c1ccc(SC)cc1)C(C(=O)Nc1ccc(OC)cc1C)c1cccnc1 (configuration not stated)	8.27%	22.2%	0.95	0.84			0%	
CC(=O)N1CCN(S(=O)(=O)C2=CC[SH]=C2)CC1		-20.6%	0.99	1	3.62%		0%	
Cc1cccc(C)c1OCC(=O)N[C@@H](Cc1ccccc1)[C@@H](O)C[C@H](Cc1ccccc1)NC(=O)[C@H](C(C)C)N1CCCNC1=O (stereo in doubt)	7.22%	13%	0.83	0.53			0%	
O=C(Cc1ccc(Cl)s1)Nc1cccnc1	0.922%	11.5%	1	1			0%	
O=C(Cc1c[nH]c2ncccc12)NCc1ccc(Cl)cn1	1.55%	4.16%	1	1			0%	

SMILES	inhibition ([1]; 20.0 µM)	inhibition ([1]; 50.0 µM)	relative solubility at 20 uM	relative solubility at 100 uM	inhibition ([2]; 50.0 µM)	IC50 [2]	inhibition ([2]; 20.0 µM)	IC50 [1]
Cc1ccncc1NC(=O)CN1CCOCC1	-2.39%	-7.76%	1	1	5.7%			
O=C(NCCN1CCN(C(=O)CCl)CC1)c1ccccc1	0.205%	18.1%	1	1.01			0.871%	
Cn1cnnc1NC(=O)Cc1cccc(Cl)c1	5.99%	-26%	1.01	1	-10.5%			
O=C(NCc1cccnn1)Nc1cccc(N2CCC2=O)c1	3.61%	6.82%	1	1	0%		0%	
CO[C@H](C)C(=O)Nc1cnccc1C (stereo in doubt)	4.95%	8.97%	1.01	1	6.56%			
NS(=O)(=O)c1ccc(N2CCC(c3nc4ccccc4s3)CC2)cc1	-11.9%	-12%	0.76	0.52			0%	
C=CC(=O)N(c1ccc(C2(C)CC2)cc1)C(C(=O)Nc1cccc(F)c1C)c1cccnc1 (configuration not stated)		34.7%	1	1	1.04%		0%	
O=C1CC(Oc2cccc(C(=O)NCc3cncnc3)c2)N1 (configuration not stated)	21.6%	25.1%	1	1	28.1%			
NS(=O)(=O)c1ccc(N2CCC(CO)CC2)cc1	3.95%	7.03%	1	1	2.83%		-1.13%	
CS(=O)(=O)Nc1cccc(C(=O)Nc2cccc(N3CCCC3=O)c2)c1	0.866%	5.19%	1	0.99			0%	
O=C(NCCNc1ccncc1)c1cccc(S(=O)(=O)Nc2ccccc2-c2ccccc2)c1	-20.4%	-32.8%	0.95	0.94	-3.32%			
CN(CC1COc2ccccc2O1)C(=O)c1cc(=O)[nH]c2cc(F)ccc12 (configuration not stated)	-3.67%	15.3%	0.98	0.99	0%			
C=CC(=O)N(c1ccc(C(C)(C)C)cc1)C(C(=O)NC1CC1)c1cccnc1 (configuration not stated)	25.4%	33%	1.01	1	33.3%		8.67%	
O=C(NCCc1ccc2c(c1)CCO2)NCc1cccc(N2C(=O)NC3(CCCC3)C2=O)c1	-29%	-12%	0.95	0.97	-30.5%			
Cc1ccncc1NC(=O)Cc1cncc(Cl)c1	28.8%	46%	1	1.01	71.4%			
C=CC(=O)N(c1cc(C(C)(C)C)on1)C(C(=O)NCCc1cccc(F)c1)c1cncc(Cl)c1 (configuration not stated)	15.8%	40.2%	0.97	0.56	100%	4780 nM		
C=CC(=O)N(c1ccc(C2(C)CC2)cc1)C(C(=O)Nc1cccc(CC)c1)c1cccnc1 (configuration not stated)		21%	0.86	0.65	47.2%		4.53%	
O=C(Nc1ccccc1OC1CCN(Cc2ccccc2)CC1)C1CCN(C(=O)CCl)CC1	6.3%	16.5%	0.94	0.95	-1.57%			
C=CC(=O)N(c1cc(C(C)(C)C)on1)C(C(=O)NC(C)(C)C)c1cccnc1 (configuration not stated)	7.86%	16.1%	0.98	0.91			28.7%	
N#Cc1cccc(NC(=O)Cc2c[nH]c3ncccc23)c1	2.74%	2.91%	1	0.95			0%	
Cc1ccncc1NC(=O)c1ccc(NC(=O)Nc2cccnc2)cc1		-23%	1	0.99	0%		3.1%	
Cc1ccncc1NC(=O)Cc1ccccc1	8.19%	19.5%	1	1	16.1%		-0.63%	
CS(=O)(=O)c1ncc(Cl)c(C(=O)Nc2ccccc2Cc2ccccc2)n1	96.3%	94.7%	0.96	0.79	100%	826 nM		
COc1ccc2[nH]cc(CCNS(C)(=O)=O)c2c1	-4.19%	-4.39%	0.92	0.86			0%	
Cn1cnnc1NC(=O)Cc1cccc(Cl)c1F	5.1%	-1.13%	0.98	0.99	-13.1%			

SMILES	inhibition ([1]; 20.0 µM)	inhibition ([1]; 50.0 µM)	relative solubility at 20 uM	relative solubility at 100 uM	inhibition ([2]; 50.0 µM)	IC50 [2]	inhibition ([2]; 20.0 µM)	IC50 [1]
NS(=O)(=O)c1ccc(N2CCC(CN3CCCCCC3)CC2)cc1	-5.53%	-0.987%	0.99	0.91	5.22%		-2.46%	
O=C(NCC1COc2ccccc2O1)c1cc(=O)[nH]c2ccc(F)cc12 (configuration not stated)	3.84%	18.6%	1	0.79	16.4%			
Cc1cc(C)cc(CS(=O)(=O)N[C@@]23COC[C@@H]2C3)c1 (stereo in doubt)	6.03%	-9.38%	1	1	0%			
N#Cc1cc(CN2CCN(C(=O)CCl)CC2)c2ccccc2c1	83.6%	93.1%	0.85	0.79		1160 nM	97.6%	
O=C(CCl)N1CC2CC1CN2Cc1cccc(Cl)c1 (configuration not stated)	82.2%	72.7%	0.99	1	100%	655 nM	100%	
O=C(C1CCN(S(=O)(=O)c2ccccc2)CC1)N1CCOCC1	1.87%	5.52%	1	0.99	0%		0%	
O=C(CCl)N1CCN(S(=O)(=O)c2cccs2)CC1	99.3%	99.6%	1	1	97.8%	557 nM	97.9%	
N#CCN1CCN(Cc2cc(Cl)cc3ccccc23)CC1		5.55%	0.91	0.92	10.2%		10.4%	
C=CC(=O)N(c1ccc(C(C)(C)C)cc1)C(C(=O)NC(C)(C)C)c1cncc(C(C)(F)F)c1 (configuration not stated)	-11.5%	-15.5%	0.99	0.96	0%		0%	
C=CC(=O)N(c1ccc(N(C)C)c(C)c1)C(C(=O)Nc1ccc(OC)cc1C)c1cccnc1 (configuration not stated)	2.51%	7.01%	0.87	0.83			0%	
CCC(=O)NCC[C@@H]1CCc2ccc3c(c21)CCO3 (stereo in doubt)	0.473%	6.69%	1	1			0%	
C=CC(=O)N1CCN(C(=O)c2cccc(Cl)c2)CC1		5.55%	0.99	0.99	0%		0%	
NS(=O)(=O)CCc1ccccc1CN1CCN(C(=O)CCl)CC1	101%	103%	1	1	100%	834 nM		
O=C1Nc2cc(Br)ccc2C1=O	-5.86%	-4.62%	1	1.01	23.8%			
Cc1cccc(NC2CCN(c3ccc(S(N)(=O)=O)cc3)CC2)c1	-2.59%	-0.838%	0.96	0.87	45.9%		39.4%	
O=C(CNc1c(-c2ccccc2)nc2ccccn12)N/N=C/c1cccc2ccccc12	13.8%	17.8%	0.5	0.5	7.53%			
COc1ccccc1OCC(C)NC(=O)c1cc(=O)[nH]c2cc(F)ccc12 (configuration not stated)	46.9%	78.4%	1	0.99	22%			33000 nM
CS(=O)(=O)Nc1cccc(C(=O)Oc2cccc(N3CCCC3=O)c2)c1		35.7%	0.99	0.86	11.2%		0%	
C=CC(=O)N(c1ccc(C2(C)CC2)cc1)C(C(=O)NC(C)(C)C)c1cccnc1 (configuration not stated)		-13.5%	1	1	10.1%		0%	
Cc1ccnc2[nH]c(CC3CCN(C(=O)CCl)CC3)nc12	5.18%	18.1%	1	1	100%	29700 nM		
CC(=O)NCCc1c[nH]c2c(NCc3ccc4nc[nH]c4c3)cc(F)cc12	-13.7%	12.1%	0.64	0.86	-4.42%			
CCNc1ncc(C#N)cc1CN1CCN(C(=O)CCl)CC1	99.7%	102%	0.98	0.95	99.7%	1640 nM		
O=C(Nc1ccccc1Cl)c1cc(Cl)ccc1O	5.47%	5.58%	0.91	0.7			7.14%	
C=CC(=O)N(c1ccc(C(F)(F)F)cc1)C(C(=O)Nc1ccc(OC)cc1C)c1cccnc1 (configuration not stated)	7.06%	25.4%	0.95	0.62			11%	
